The IC50 is the point on the concentration scale where inhibition reaches its midpoint. High values mean a need for much substance, low ones inhibition by little substance. By MIC is commonly meant the smallest concentration in the dilution series that meets the test's criterion for growth inhibition. Read a high MIC as weaker potency.

The record followed here is ChEMBL document CHEMBL3596153, “Trichormamides C and D, antiproliferative cyclic lipopeptides from the cultured freshwater cyanobacterium cf. Oscillatoria sp. UIC 10045” (Bioorg Med Chem, 2015).

In test [1] the test system is Mycobacterium tuberculosis. Nature of the test: Antimicrobial activity against Mycobacterium tuberculosis at 50 ug/ml. The test is classed as functional, organism-based.
The subject of a further test is Escherichia coli. Nature of the test: Antimicrobial activity against Escherichia coli at 50 ug/ml. The test is classed as functional, organism-based.
The test system of the next test is MDA-MB-435. Kind of test: Antiproliferative activity against human MDA-MB-435 cells. The test is classed as functional, cell-based.
The subject of the next test is Candida albicans. Nature of the test: Antimicrobial activity against Candida albicans at 50 ug/ml. The test is classed as functional, organism-based.
The test system of another test is Staphylococcus aureus. Kind of test: Antimicrobial activity against Staphylococcus aureus at 50 ug/ml. The class given is functional, organism-based.
Test [2] deals with Mycolicibacterium smegmatis. Nature of the test: Antimicrobial activity against Mycobacterium smegmatis at 50 ug/ml. The class given is functional, organism-based.
In another test the test system is HT-29. Kind of test: Antiproliferative activity against human HT-29 cells. The class given is functional, cell-based.
Test [3] concerns Mycobacterium tuberculosis. Kind of test: Antimicrobial activity against Mycobacterium tuberculosis. The class given is functional.

Converted amounts (≈) assume the structure as drawn. The source made the active and inactive calls.

For `C/C=C1/NC(=O)[C@H](CCC(N)=O)NC(=O)C[C@@H](CCCCCCC)NC(=O)CNC(=O)[C@H](CC(C)C)NC(=O)[C@@H](Cc2ccccc2)NC(=O)[C@H](C(C)C)NC(=O)[C@@H](CC(C)C)NC(=O)[C@@H](Cc2ccc(O)cc2)NC(=O)[C@H](CO)NC(=O)[C@@H]2CCCN2C1=O`, the outcome (in test [1]; in the test with Escherichia coli; with Candida albicans; in the test on Staphylococcus aureus; in test [2]) was inactive. Also, the IC50 in the test on MDA-MB-435 was found to be 11.7 µM; in the test with HT-29 it was 11.5 µM.
As for `CCCCCCC[C@@H]1CC(=O)N[C@@H](C(C)C)C(=O)N[C@H]([C@@H](O)C(C)C)C(=O)N[C@@H](C)C(=O)N[C@H]([C@@H](O)C(C)C)C(=O)N[C@@H](CCC(N)=O)C(=O)N(C)[C@@H]([C@@H](C)CC)C(=O)N[C@H](CC(N)=O)C(=O)N[C@@H]([C@@H](C)O)C(=O)N2CCC[C@H]2C(=O)N[C@H](CC(C)C)C(=O)N[C@@H]([C@@H](C)O)C(=O)N1`, the result (in the test on Escherichia coli; in the test on Candida albicans; in the test with Staphylococcus aureus; in test [2]) was inactive. Besides, the IC50 with MDA-MB-435 is 1 µM; in the test on HT-29, 1.7 µM. In test [3], the minimum inhibitory concentration (MIC) is 23.8 µg/mL (≈ 17.3 µM).
